Assays:
Type in all cases: cell-based, human
NCCIT cells = assay: XTT cell viability assay, NCCIT
Procedure: (§1) The following cell lines were used 2102EP, 2102EP-R, NCCIT, NCCIT-R (all ECs), TCam2 (seminoma cell line), FS1 (Sertoli cell line) and MPAF (human adult fibroblast cell line). Cells were cultivated as described previously. In brief, the ECs were cultivated in Dulbecco’s modified Eagle’s medium (DMEM) supplemented with 10% fetal bovine serum (FBS), 1% penicillin–streptomycin and […] L-glutamine. FS1 cells were grown in DMEM supplemented with 20% FSB, 1% penicillin–streptomycin, 200 mM L-glutamine and 1% nonessential amino acids (NEAA). MPAF cells were cultured in DMEM supplemented with 10% FBS, 1% penicillin–streptomycin, 200 mM L-glutamine and 1% NEAA. TCam2 cell line was cultured in RPMI medium supplemented with 10% FBS, 1% penicillin–streptomycin and […] L-glutamine. All cell lines were kept at 37 °C and 7.5% CO2. 2102EP and NCCIT were a kind gift from Prof. Dr. L. Looijenga (Princess Máxima Center for Pediatric Oncology, Utrecht, The Netherlands). Cisplatin-resistant lines 2102EP-R and NCCIT-R were obtained from PD Dr. F. Honecker (Breast and Tumor Center, ZeTup Silberturm, St. Gallen, Switzerland). MPAFs were a kind gift from […] (Bonn University, Institute of Reconstructive Neurobiology, Bonn, Germany). FS1 cells were obtained from Prof. Dr. V. Schumacher (Boston Children’s Hospital, Department of Urology; Harvard Medical School, Department of Surgery, Boston, MA, USA).
(§2) The assay was performed based on the reduction in XTT tetrazolium salt as described previously. In summary, 3000 cells were seeded per well of a 96-well cell culture plate in 100 µL of cell culture medium. The next day, cells were treated with CDK inhibitor or CDK degrader for 24/48/72 h. For XTT assay, 0.6 mg/mL XTT sodium salt was dissolved in cell culture medium (DMEM or RPMI) and supplemented with 25 µM electron carrier N-methyl dibenzopyrazine methyl sulfate (PMS). A total of 50 µL of XTT/PMS was added to each well and incubated for 4 h at 37 °C, 7.5% CO2. For readout, absorption was measured at 450 nm and 650 nm. Specific XTT signal (450 nm) was subtracted by nonspecific absorbance (650) and blank (cell culture medium). Averages of technical triplicates were calculated, and treated sample was referenced to the corresponding dimethyl sufoxide (DMSO) control. Experiment was repeated several times to obtain biological replicates. For statistical analysis, two-tailed Student’s t-test was applied.

2102EP cells = assay: XTT cell viability assay, 2102EP
Procedure: as §1, §2

MPAF cells = assay: XTT cell viability assay, MPAF fibroblast control; conditions: XTT viability
Procedure: as §1, §2

2102EP and NCCIT cells = assay: 7AAD/AnnexinV FACS apoptosis analysis, 2102EP and NCCIT; conditions: 10 nM, 24 and 48 h
Procedure: (§3) Cells were seeded in 6-well cell culture plates (1.5 × 10^5 cells/well). […] For cell cycle analysis, cells were harvested after 20 h of treatment and resuspended in PBS. Ice-cold methanol was added dropwise while shaking until 70% methanol v/v was reached. Cells were incubated for 2 h at 4 °C and subsequently washed twice with cold PBS. Staining (2 µg/mL Hoechst-33342, 50 µg/mL RNaseA in PBS) was performed for 30 min at 37 °C. The cell cycle distribution was measured in an FACS Canto (BD BioSciences, Heidelberg, Germany) and analyzed using FlowJo™ v10.8 Software (BD BioSciences, Heidelberg, Germany). For apoptosis analysis, PE AnnexinV Apoptosis Detection Kit with 7-AAD (BioLegend, San Diego, CA USA) was used according to the manufacturer’s manual. Measurement was performed in an FACS Canto while analysis was performed in the corresponding BD FACSDiva software^TM (BD BioSciences, Heidelberg, Germany). Two-tailed Student’s t-test was applied for calculation of significance.

[1] = tested on: TCam2, FS1 and MPAF cells; assay: 7AAD/AnnexinV FACS apoptosis analysis, TCam2, FS1 and MPAF; conditions: 10 nM, 24 and 48 h
Procedure: as §3

[2] = tested on: TGCT and control cell lines; assay: Hoechst-FACS cell cycle analysis; conditions: 20 h; NVP2 and SY0351 10 nM, YKL-5-124 and THZ531 100 nM
Procedure: as §3

TCam2 cells = assay: XTT cell viability assay, TCam2
Procedure: as §1, §2

2102EP-R cells = assay: XTT cell viability assay, 2102EP-R (cisplatin-resistant)
Procedure: as §1, §2

FS1 cells = assay: XTT cell viability assay, FS1 Sertoli control
Procedure: as §1, §2

TGCT cell lines = assay: XTT cell viability assay, summarised over TGCT tumor cell lines; conditions: TGCT cell lines and FS1 cell line, 10 nM
Procedure: as §1, §2

NCCIT-R cells = assay: XTT cell viability assay, NCCIT-R (cisplatin-resistant)
Procedure: as §1, §2

COC[C@@H](C)N[C@H]1CC[C@H](Nc2cc(-c3cccc(NCC4(C#N)CCOCC4)n3)c(Cl)cn2)CC1 [NVP2] gave an IC50 (NCCIT cells; 24 h) of 90.6 nM, an IC50 (NCCIT cells; 48 h) of 40.7 nM and an IC50 (NCCIT cells; 72 h) of 6.5 nM. For the same molecule, the IC50 (2102EP cells; 24 h) was 503 nM, the IC50 (2102EP cells; 48 h) was 10.5 nM and the IC50 (2102EP cells; 72 h) was 6.1 nM. The IC50 (MPAF cells; 24 h) was > 1000 nM, the IC50 (MPAF cells; 48 h) was > 1000 nM and the IC50 (MPAF cells; 72 h) was > 1000 nM. For the same molecule, the “apoptosis, fold compared to the control” value (2102EP and NCCIT cells) was “up to 5.5 fold”, the “fold change in apoptotic cells” value [1] was “up to 3.3 fold” and the “effect on cell cycle” value [2] was “only mild effects on the cell cycle”. The IC50 (TCam2 cells; TCam2, 24 h) was 216 nM, the IC50 (TCam2 cells; TCam2, 48 h) was 60 nM and the IC50 (TCam2 cells; TCam2, 72 h) was 16.1 nM. The IC50 (2102EP-R cells; 24 h) was 884 nM, the IC50 (2102EP-R cells; 48 h) was 11.2 nM and the IC50 (2102EP-R cells; 72 h) was 8.6 nM. It also gave an IC50 (FS1 cells; FS1, 24 h) of 98.2 nM, an IC50 (FS1 cells; FS1, 48 h) of 33.5 nM and an IC50 (FS1 cells; FS1, 72 h) of 8.9 nM. The “viability (XTT)” value (TGCT cell lines) was “effectively reduced the viability”, the IC50 (NCCIT-R cells; 24 h) was 104 nM and the IC50 (NCCIT-R cells; 48 h) was 17.1 nM. It also gave an IC50 (NCCIT-R cells; 72 h) of 12.2 nM.

— publication PMC8997165, “Transcriptional CDK Inhibitors as Potential Treatment Option for Testicular Germ Cell Tumors” (Cancers, 2022)
